Among the test systems are HCT-15 colon; OVCAR-4 ovarian; HOP-62 NSCLC; 786-0 renal; K-562 leukemia; UO-31 renal; OVCAR-5 ovarian; OVCAR-3 ovarian; HS 578T breast; RXF 393 renal; RPMI-8226 leukemia.
Holding throughout (experiment): NCI anticancer screen, dose series, 48 h

The structures appear in SMILES notation.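 Results reflect a 48-hour exposure of cells in 96-well plates to compound at five concentrations. GI50 marks 50% less growth. At the TGI there is no net growth.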

Turning to `COC(=O)Nc1nc2ccc(NC(=O)c3cccs3)cc2[nH]1`, the TGI is above 100 µM in the assay on HCT-15 colon; above 100 µM in the assay on OVCAR-4 ovarian; above 100 µM in the assay with HOP-62 NSCLC; above 100 µM with 786-0 renal; above 100 µM in the assay with K-562 leukemia; 36.2 µM in the assay on UO-31 renal. Also, the TGI in the assay with OVCAR-5 ovarian is above 100 µM; in the assay with OVCAR-3 ovarian, 47.3 µM; with HS 578T breast, 44.7 µM; in the assay on RXF 393 renal, 86.7 µM; with RPMI-8226 leukemia, 46.4 µM.

Consider `O=C1OC2CC=CC1C2` (stereo not given), for which the TGI in the assay with HCT-15 colon, in the assay on OVCAR-4 ovarian, in the assay on HOP-62 NSCLC, with K-562 leukemia, in the assay with UO-31 renal and in the assay on OVCAR-5 ovarian was above 100 µM each time. The TGI in the assay on OVCAR-3 ovarian, in the assay on RXF 393 renal and in the assay on RPMI-8226 leukemia was above 100 µM each time.

Take `C=C1C(=O)OC2CC1CCC1(C)OC1CCC(C)=CCCC2(C)O` (stereo not given): the TGI turned out to be 7.79 µM in the assay with HCT-15 colon; 11.9 µM in the assay on OVCAR-4 ovarian; 19.4 µM in the assay with HOP-62 NSCLC; 13.7 µM in the assay on K-562 leukemia; 18.7 µM with UO-31 renal; 19.1 µM in the assay with OVCAR-5 ovarian. The TGI in the assay on OVCAR-3 ovarian was determined as 9.3 µM; with RXF 393 renal, 3.61 µM; in the assay on RPMI-8226 leukemia it was 7.18 µM.

Regarding `c1ccc(C[N+]23CN4CN(CN(C4)C2)C3)cc1`, the TGI in the assay on HCT-15 colon is above 100 µM; with OVCAR-4 ovarian, above 100 µM; in the assay on HOP-62 NSCLC, above 100 µM; in the assay on 786-0 renal it was 46.8 µM; in the assay on K-562 leukemia, 86.2 µM; with UO-31 renal it was 43.7 µM. Moreover, the TGI with OVCAR-5 ovarian is above 100 µM; in the assay with OVCAR-3 ovarian, above 100 µM; in the assay with HS 578T breast, above 100 µM; in the assay with RXF 393 renal, 36.8 µM; in the assay on RPMI-8226 leukemia it was 57.2 µM.

With `O=C1CCCC2C3CC(CN12)C1CCCCN1C3` (stereo not given), the TGI in the assay with HCT-15 colon, with OVCAR-4 ovarian, with HOP-62 NSCLC, in the assay on 786-0 renal, in the assay with UO-31 renal and in the assay on OVCAR-5 ovarian was above 100 µM throughout. Besides, the TGI in the assay on OVCAR-3 ovarian, in the assay on HS 578T breast, in the assay with RXF 393 renal and in the assay on RPMI-8226 leukemia was above 100 µM each time.

Consider `CN1CC(CNC(=O)OCc2ccccc2)CC2c3cccc4c3c(cn4C)CC21` (stereo not given), for which the GI50 in the assay with HCT-15 colon is 1690 nM; with HOP-62 NSCLC, 1520 nM; with K-562 leukemia it was 1690 nM; in the assay on UO-31 renal, 1240 nM; in the assay on OVCAR-5 ovarian, 1980 nM; in the assay on OVCAR-3 ovarian, 2630 nM. Moreover, the results for the GI50 in the assay with HS 578T breast, in the assay with RXF 393 renal and in the assay on RPMI-8226 leukemia were 1990 nM, 1740 nM and 2140 nM, respectively. Moreover, the TGI is 3.52 µM in the assay on HCT-15 colon; 2.98 µM with HOP-62 NSCLC; 4.44 µM with K-562 leukemia; 4.22 µM in the assay on UO-31 renal; 4.91 µM in the assay on OVCAR-5 ovarian; 7.79 µM in the assay with OVCAR-3 ovarian. For the same compound, the values for the TGI in the assay with HS 578T breast, in the assay on RXF 393 renal and with RPMI-8226 leukemia were 6.96 µM, 3.2 µM and 5.36 µM, respectively.

`O=C1OCc2cc3cc4c(cc3c(-c3ccc5c(c3)OCO5)c21)OCO4` (tested in a mixture with another compound): the TGI in the assay on HCT-15 colon is above 100 µM; in the assay on OVCAR-4 ovarian, above 100 µM; in the assay on HOP-62 NSCLC, 34.9 µM; in the assay on K-562 leukemia it was above 100 µM; with UO-31 renal it was 63.8 µM; in the assay on OVCAR-5 ovarian it was 96.8 µM. Further, the TGI with OVCAR-3 ovarian is 21.4 µM; with HS 578T breast, 80.9 µM; in the assay on RXF 393 renal, 22.5 µM; in the assay with RPMI-8226 leukemia it was above 100 µM.

For the compound `O=C(COc1ccc(Cl)c(Cl)c1)N(Cc1ccccc1)Cc1ccc[n+](Cc2ccc(Cl)cc2S(=O)(=O)F)c1`, the TGI with HCT-15 colon, in the assay with OVCAR-4 ovarian, in the assay with HOP-62 NSCLC, in the assay on 786-0 renal, with K-562 leukemia and in the assay on UO-31 renal was above 100 µM throughout. The TGI was above 100 µM in the assay on OVCAR-5 ovarian; above 100 µM with OVCAR-3 ovarian; above 100 µM in the assay with HS 578T breast; above 100 µM in the assay with RXF 393 renal; 28.4 µM in the assay on RPMI-8226 leukemia.

Turning to `COc1ccc(NC(=S)N/N=C(\C)c2nc3ncccc3[nH]2)cc1`, the TGI was above 100 µM in the assay on HCT-15 colon; above 100 µM with OVCAR-4 ovarian; 59.3 µM in the assay on HOP-62 NSCLC; above 100 µM in the assay on 786-0 renal; above 100 µM in the assay with K-562 leukemia; 12 µM with UO-31 renal. The TGI with OVCAR-5 ovarian is above 100 µM; in the assay with OVCAR-3 ovarian, 6.9 µM; with HS 578T breast, above 100 µM; with RPMI-8226 leukemia, above 100 µM.

For `Cl/C(=C\C=Nc1ccc(I)cc1)c1ccc2ccccc2c1`, the TGI was 33.8 µM in the assay with HCT-15 colon; 46.5 µM in the assay on OVCAR-4 ovarian; 40.7 µM in the assay on HOP-62 NSCLC; 40.7 µM with 786-0 renal; 31.8 µM in the assay with K-562 leukemia; above 55.9 µM with UO-31 renal. Moreover, the TGI in the assay with OVCAR-5 ovarian is above 64.6 µM; in the assay with OVCAR-3 ovarian it was 30.9 µM; with HS 578T breast it was above 87.7 µM; in the assay with RXF 393 renal, 61.8 µM; in the assay with RPMI-8226 leukemia, 56.5 µM.

On to `CC(=O)NNC(=O)C1CCCCN1` (stereo not given), for which the TGI in the assay with HCT-15 colon, in the assay on OVCAR-4 ovarian, in the assay with HOP-62 NSCLC, in the assay on 786-0 renal, in the assay on K-562 leukemia and in the assay with OVCAR-5 ovarian was above 100 µM throughout. The TGI in the assay on OVCAR-3 ovarian, in the assay on HS 578T breast, in the assay with RXF 393 renal and with RPMI-8226 leukemia was above 100 µM throughout.

(Values after PubChem BioAssay (NCI).)
